From publication PMC6953623 (Bioorganic & medicinal chemistry letters, 2019)

Biological target: AChE (Homo sapiens, UniProt P22303)
Assay type: biochemical
Conditions: result in words

AChE, sequence (P22303 32-614): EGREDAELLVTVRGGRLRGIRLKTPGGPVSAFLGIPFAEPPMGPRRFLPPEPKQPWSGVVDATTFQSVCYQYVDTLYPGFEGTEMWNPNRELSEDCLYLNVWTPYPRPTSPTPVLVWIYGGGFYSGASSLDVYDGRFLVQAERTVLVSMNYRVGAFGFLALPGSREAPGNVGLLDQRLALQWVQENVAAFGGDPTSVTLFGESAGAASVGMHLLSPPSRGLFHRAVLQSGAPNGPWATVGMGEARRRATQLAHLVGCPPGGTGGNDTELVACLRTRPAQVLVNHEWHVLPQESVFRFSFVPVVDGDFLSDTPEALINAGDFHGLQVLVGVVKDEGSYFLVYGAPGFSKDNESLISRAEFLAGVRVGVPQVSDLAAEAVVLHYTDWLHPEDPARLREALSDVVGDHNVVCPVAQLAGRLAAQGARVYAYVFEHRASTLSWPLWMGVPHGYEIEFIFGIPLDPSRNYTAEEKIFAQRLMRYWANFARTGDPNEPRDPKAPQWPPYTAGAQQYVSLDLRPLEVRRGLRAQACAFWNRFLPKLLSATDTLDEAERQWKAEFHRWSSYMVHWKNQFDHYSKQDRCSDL

Cc1cc(CSCCc2nc3ccccc3[nH]2)c(O)c(CSCCc2nc3ccccc3[nH]2)c1 [NSC620023]
inhibition of AChE: no inhibition of AChE at all
